From patent publication US9549560B2, “Pesticidal compositions and related methods” (DOW AGROSCIENCES LLC, priority 2013, dated 2017)

Legend:
[1] = tested on: Sweetpotato Whitefly-Crawler (Bemisia tabaci); test: Insecticidal test for Sweetpotato Whitefly-Crawler (WF) (BEMITA) in foliar spray assay on cotton plants; format: in vivo; conditions: 216 h, 200 ppm foliar spray, graded after 9 days, Abbott corrected % control, read-out: % Control (or Mortality) rating, WF
Method: Cotton plants (Gossypium hirsutum) grown in 3-inch pots, with 1 small (4-5 cm) true leaves, were used as test substrate. The plants were infested with 200-400 whitefly eggs 4-5 days prior to chemical application. Four pots with individual plants were used for each treatment. Test compounds (2 mg) were dissolved in 1 mL of acetone solvent, forming stock solutions of 2000 ppm test compound. The stock solutions were diluted 10× with 0.025% Tween 20 in H2O (diluents) to obtain the solution at 200 ppm test compound. A hand-held aspirator-type sprayer was used for spraying a solution to both sides of cotton leaves until runoff. Reference plants (solvent check) were sprayed with the diluent only containing 10% by volume of acetone solvent. Treated plants were held in a holding room for 9 days at approximately 25° C. and ambient relative humidity (RH) prior to grading. Evaluation was conducted by counting the number of live 3-4 nymph stage per plant under a microscope. Percent control was measured by using Abbott's correction formula (W. S. Abbott, “A Method of Computing the Effectiveness of an Insecticide,” J. Econ. Entomol. 18 (1925), pp. 265-267) as follows. Corrected % Control=100*(X−Y)/X
X=No. of live nymphs on solvent check plants and
Y=No. of live nymphs on treated plants.
(§1) Biological Data for Green Peach Aphid (GPA) (MYZUPE) and Sweetpotato Whitefly-crawler (WF) (BEMITA)” (See Table Section).

[2] = tested on: Green Peach Aphid (Myzus persicae); test: Bioassay for Green Peach Aphid (GPA) (MYZUPE), foliar spray on cabbage seedlings; format: in vivo; conditions: 72 h, 200 ppm foliar spray, graded after three days, Abbott corrected % control, read-out: % Control (or Mortality) rating, GPA
Method: Cabbage seedlings grown in 3-inch pots, with 2-3 small (3-5 cm) true leaves, were used as test substrate. The seedlings were infested with 20-50 GPA (wingless adult and nymph stages) one day prior to chemical application. Four pots with individual seedlings were used for each treatment. Test compounds (2 mg) were dissolved in 2 mL of acetone/methanol (1:1) solvent, forming stock solutions of 1000 ppm test compound. The stock solutions were diluted 5× with 0.025% Tween 20 in H2O to obtain the solution at 200 ppm test compound. A hand-held aspirator-type sprayer was used for spraying a solution to both sides of […] leaves until runoff. Reference plants (solvent check) were sprayed with the diluent only containing 20% by volume of acetone/methanol (1:1) solvent. Treated plants were held in a holding room for three days at approximately 25° C. and ambient relative humidity (RH) prior to grading. Evaluation was conducted by counting the number of live aphids per plant under a microscope. Percent control was measured by using Abbott's correction formula (W. S. Abbott, “A Method of Computing the Effectiveness of an Insecticide,” J. Econ. Entomol. 18 (1925), pp. 265-267) as follows. Corrected % Control=100*(X−Y)/X
X=No. of live aphids on solvent check plants and
Y=No. of live aphids on treated plants
as §1

| SMILES | mortality at 200 ppm [1] [%] | mortality at 200 ppm [2] [%] |
| --- | --- | --- |
| CCN(C(=O)C(C)C[S+]([O-])CCC(F)(F)F)c1cn(-c2ccc[n+]([O-])c2)nc1C (stereo not shown) [FA10, 3-(4-(N-Ethyl-2-methyl-3-((3,3,3-trifluoropropyl)sulfinyl)propanamido)-3-methyl-1H-pyrazol-1-yl)pyridine 1-oxide] | 0 to 80 | 80 to 100 |
| C#CCN(C(=O)CCSCC1CC1(F)F)c1cn(-c2ccc[n+]([O-])c2)nc1Cl (stereo not shown) [Compound P65, 3-(3-Chloro-4-(3-(((2,2-difluorocyclopropyl)methyl)thio)-N-(prop-2-yn-1-yl)propanamido)-1H-pyrazol-1-yl)pyridine 1-oxide] | 80 to 100 | 80 to 100 |
| CCN(C(=O)CCSC)c1cn(-c2ccc[n+]([O-])c2)nc1Cl [Compound F2, 3-(3-Chloro-4-(N-ethyl-3-(methylthio)propanamido)-1H-pyrazol-1-yl) pyridine 1-oxide] | 80 to 100 | 80 to 100 |
| CCN(C(=O)CCSCCCC(F)(F)F)c1cn(-c2ccc[n+]([O-])c2)nc1Cl [Compound P53, 3-(3-Chloro-4-(N-ethyl-3-((4,4,4-trifluorobutyl)thio)propanamido)-1H-pyrazol-1-yl)pyridine 1-oxide] | 80 to 100 | 80 to 100 |
| CN(C(=O)CCSCCCC(F)(F)F)c1cn(-c2ccc[n+]([O-])c2)nc1Cl [Compound P62, 3-(3-Chloro-4-(N-methyl-3-((4,4,4-trifluorobutyl)thio)propanamido)-1H-pyrazol-1-yl)pyridine 1-oxide] | 80 to 100 | 80 to 100 |
| CCN(C(=O)C(C)CS(C)(=O)=O)c1cn(-c2ccc[n+]([O-])c2)nc1Cl (stereo not shown) [Compound F12, 3-(3-Chloro-4-(N-ethyl-2-methyl-3-(methylsulfonyl)propanamido)-1H-pyrazol-1-yl) 1-oxide] | 80 to 100 | 80 to 100 |
| CCN(C(=O)CCSCCC(F)(F)F)c1cn(-c2ccc[n+]([O-])c2)nc1Cl [Compound F5, 3-(3-chloro-4-(N-ethyl-3-((3,3,3-trifluoropropyl)thio)propanamido)-1H-pyrazol-1-yl)pyridine 1-oxide] | 80 to 100 | 80 to 100 |
| CCN(C(=O)C(C)C[S+](C)[O-])c1cn(-c2ccc[n+]([O-])c2)nc1Cl (stereo not shown) [Compound F6] | 80 to 100 | 80 to 100 |
| CCNc1cn(-c2ccc[n+]([O-])c2)nc1C [CA2, 3-(4-(Ethylamino)-3-methyl-1H-pyrazol-1-yl)pyridine 1-oxide] | 80 to 100 | 0 to 80 |
| CCN(C(=O)CC[S+](C)[O-])c1cn(-c2ccc[n+]([O-])c2)nc1Cl (stereo not shown) [Compound F9, 3-(3-Chloro-4-(N-ethyl-3-(methylsulfinyl)propanamido)-1H-pyrazol-1-yl) pyridine 1-oxide] | 80 to 100 | 80 to 100 |
| CCN(C(=O)CCSCC1CC1(F)F)c1cn(-c2cc(F)c[n+]([O-])c2)nc1Cl (stereo not shown) [Compound P92, 3-(3-Chloro-4-(3-(((2,2-difluorocyclopropyl)methyl)thio)-N-ethylpropanamido)-1H-pyrazol-1-yl)-5-fluoropyridine 1-oxide] | 80 to 100 | 80 to 100 |
